Results reported in ChEMBL document CHEMBL3217654, “Beta-adrenergic receptor signaling by the isomers of isoproterenol and like drugs in retinal endothelial cells and Muller cells” (Medchemcomm, 2011).
The source made the active and inactive calls. The rule behind the calls is not given here.

Key:
[1] = Reduction of high glucose-induced apoptosis in REC (unknown origin) assessed as decrease in caspase 3 level at 10 uM after 15 to 45 mins by ELISA; format: functional
[2] = Reduction of high glucose-induced apoptosis in REC (unknown origin) assessed as decrease in caspase 3 level at 0.05 to 10 uM after 30 to 60 mins by ELISA; format: functional
Rattus norvegicus [3] = species: Rattus norvegicus; assay: Reduction of high glucose-induced apoptosis in rat rMC-1 cells assessed as decrease in caspase 3 level at 0.05 to 10 uM after 1 to 24 hrs by ELISA; format: functional, cell-based
Rattus norvegicus [4] = species: Rattus norvegicus; assay: Antiinflammatory activity in rat rMC-1 cells assessed as decrease of high glucose-induced TNFalpha level at 0.05 to 10 uM after 1 to 24 hrs by ELISA; format: functional, cell-based
[5] = Antiinflammatory activity in REC (unknown origin) assessed as effect on high glucose-induced TNFalpha level at 0.05 to 10 uM after 30 to 60 mins by ELISA; format: functional
[6] = Antiinflammatory activity in REC (unknown origin) assessed as increase of high glucose-induced TNFalpha level at 0.05 to 10 uM after 30 to 60 mins by ELISA; format: functional
[7] = Antiinflammatory activity in REC (unknown origin) assessed as decrease of high glucose-induced TNFalpha level at 0.05 to 10 uM after 30 to 60 mins by ELISA; format: functional
[8] = biological target: Beta-1 adrenergic receptor (Homo sapiens) (UniProt P08588); assay: Displacement of […]-iodocyanopindolol from beta1-adrenergic receptor in REC (unknown origin) at 0.01 to 10000 nM
[9] = biological target: Beta-1 adrenergic receptor (Rattus norvegicus) (UniProt P18090); assay: Displacement of […]-iodocyanopindolol from beta1-adrenergic receptor in rat rMC-1 cells at 0.01 to 10000 nM; format: cell-based
Sequence of Beta-1 adrenergic receptor (Rattus norvegicus) (P18090 whole entry, looked up): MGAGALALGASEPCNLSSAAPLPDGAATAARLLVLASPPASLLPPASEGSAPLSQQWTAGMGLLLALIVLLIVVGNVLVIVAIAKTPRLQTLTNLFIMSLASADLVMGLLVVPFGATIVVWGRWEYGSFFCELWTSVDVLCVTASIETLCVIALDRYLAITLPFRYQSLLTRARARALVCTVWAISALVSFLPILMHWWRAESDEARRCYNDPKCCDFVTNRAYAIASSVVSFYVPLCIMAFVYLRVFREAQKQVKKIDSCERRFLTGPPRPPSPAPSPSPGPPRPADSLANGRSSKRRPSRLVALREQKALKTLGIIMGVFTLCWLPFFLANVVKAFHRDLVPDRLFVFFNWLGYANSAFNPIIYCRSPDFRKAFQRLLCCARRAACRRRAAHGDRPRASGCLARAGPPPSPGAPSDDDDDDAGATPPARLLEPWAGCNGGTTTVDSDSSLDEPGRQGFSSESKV

Sequence of Beta-1 adrenergic receptor (Homo sapiens) (P08588 whole entry, looked up): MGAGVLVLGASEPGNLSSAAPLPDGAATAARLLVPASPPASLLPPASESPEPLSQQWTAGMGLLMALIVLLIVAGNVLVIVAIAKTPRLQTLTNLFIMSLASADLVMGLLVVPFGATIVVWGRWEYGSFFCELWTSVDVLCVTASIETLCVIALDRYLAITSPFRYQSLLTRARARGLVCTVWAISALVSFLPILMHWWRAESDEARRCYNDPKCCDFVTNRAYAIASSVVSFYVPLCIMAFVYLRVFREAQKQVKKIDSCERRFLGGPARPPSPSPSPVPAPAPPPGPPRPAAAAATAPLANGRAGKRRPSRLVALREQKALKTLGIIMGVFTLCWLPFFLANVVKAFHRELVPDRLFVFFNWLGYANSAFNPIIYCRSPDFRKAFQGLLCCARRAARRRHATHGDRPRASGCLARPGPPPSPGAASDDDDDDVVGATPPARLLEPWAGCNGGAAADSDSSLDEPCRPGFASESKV

| SMILES | Activity [1] | Activity [2] | Activity (Rattus norvegicus [3]) | Activity (Rattus norvegicus [4]) | Activity [5] | Activity [6] | Activity [7] | inhibition [8] | inhibition [9] |
| --- | --- | --- | --- | --- | --- | --- | --- | --- | --- |
| Oc1ccc([C@@H](O)CNCCCN2CCOCC2)cc1O | Active | Active | inactive | inactive | inactive | – | – | – | – |
| O=C(NC[C@H](O)c1ccc(O)c(O)c1)N1CCOCC1 | – | inactive | inactive | inactive | – | inactive | – | – | – |
| CC(C)NC[C@H](O)c1ccc(O)c(O)c1 (stereo in doubt; S-1) | – | inactive | inactive | Active | inactive | – | – | – | – |
| CC(C)NC[C@H](O)c1ccc(O)c(O)c1 (stereo in doubt; R-1) | Active | Active | inactive | Active | inactive | – | – | – | – |
| O=C(NCCN(C[C@H](O)c1ccc(O)c(O)c1)C(=O)N1CCOCC1)N1CCOCC1 | Active | Active | inactive | inactive | – | – | Active | inactive | inactive |
